Results on 16 compounds are retold here after patent US11753407B2, “Compounds for treating spinal muscular atrophy” (PTC Therapeutics, Inc., priority 2012, dated 2023).

Series [1] relates to SMN2 minigene mRNA (SMN2-A minigene) in HEK293H cells. The series is described as follows: SMN2 minigene mRNA splicing RT-qPCR assay in cultured cells. The series is classed as cell-based, human. The following applies: Homo sapiens, HEK293-H; concentration increasing full length SMN2 mRNA 1.5-fold relative to vehicle-treated cells; HEK293H cells with SMN2-A minigene, 24 hours, 7-point concentration data; read-out: EC1.5x for production of full length SMN2 mRNA. Put shortly:
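Stable SMN2-A minigene HEK293H; cpd 7-pt 3.16-fold series, 200× in DMSO, 24 h, 37 °C, n=2. Lysates → multiplex RT-qPCR (minigene FL + GAPDH), efficiency-corrected ΔΔCt vs vehicle. EC1.5× = 1.5-fold FL mRNA gain.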
On the technique in general: Real-time PCR tracks product formation cycle by cycle.

Series [2] concerns Smn protein in SMA patient fibroblast cells (GM03813). Kind of series: Smn protein assay in cultured cells (SMN HTRF). The class given is cell-based, human. The following applies: SMA patient fibroblast cells, 48 hours; for EC1.5x for Smn protein expression: 7-point concentration curve, SMN HTRF, concentration producing 1.5 times Smn protein vs DMSO vehicle control; for maximum fold (Fold) increase of Smn protein: 7-point concentration data, fold relative to vehicle control. The gist of the method:
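Fibroblasts, SMA patient; 5,000 cells/well; 7-pt curve, 3.16-fold serial dilution; 48 h, 37 °C, 5% CO2; RIPA lysis 1 h RT; anti-SMN d2 + kryptate overnight RT; HTRF 665/620 nm; fold vs DMSO; EC1.5×, max fold.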
In general terms: TR-FRET usually uses a lanthanide donor and a delayed reading to cut background.

`CCc1nc(C)cn2nc(-c3cc(=O)n4cc(N5CCN[C@@H](C)C5)ccc4n3)cc12` [Compound 635, 2-(4-ethyl-6-methylpyrazolo[1,5-a]pyrazin-2-yl)-7-[(3S)-3-methylpiperazin-1-yl]-4H-pyrido[1,2-a]pyrimidin-4-one] displayed a melting point of 202 to 204 °C. Besides, the EC (1.5-fold increase) in series [1] is less than 0.1 µM. Also, in series [2], the “EC1.5x for Smn protein expression” value is reported as “**** (an EC1.5x≤0.3 μM is indicated by four stars (****))” and the “maximum fold (Fold) increase of Smn protein” value (“maximum fold (Fold) increase” for short) is “***** (a fold increase >1.65 is indicated by five stars (*****))”.
For `CCNC1(C)CCN(c2ccc3nc(-c4cc5c(C)nc(C)cn5n4)cc(=O)n3c2)CC1` [Compound 707, 2-(4,6-dimethylpyrazolo[1,5-a]pyrazin-2-yl)-7-[4-(ethylamino)-4-methylpiperidin-1-yl]-4H-pyrido[1,2-a]pyrimidin-4-one], in that order: 187 to 189 °C, less than 0.1 µM, “**** (an EC1.5x≤0.3 μM is indicated by four stars (****))” and “***** (a fold increase >1.65 is indicated by five stars (*****))”.
The corresponding values for `Cc1cn2nc(-c3cc(=O)n4cc(N5CCC6(CCNC6)C5)ccc4n3)cc2c(C)n1` (stereo not drawn) [Compound 767, 7-(2,7-diazaspiro[4.4]non-2-yl)-2-(4,6-dimethylpyrazolo[1,5-a]pyrazin-2-yl)-4H-pyrido[1,2-a]pyrimidin-4-one] are 208 to 210 °C, less than 0.1 µM, “**** (an EC1.5x≤0.3 μM is indicated by four stars (****))” and “***** (a fold increase >1.65 is indicated by five stars (*****))”.
`C[C@H]1CN(c2ccc3nc(-c4ccc5nn(C)cc5c4)cc(=O)n3c2)CCN1` [Compound 138, 2-(2-methyl-2H-indazol-5-yl)-7-[(3S)-3-methylpiperazin-1-yl]-4H-pyrido[1,2-a]pyrimidin-4-one] came in with a melting point of 166 to 170 °C. Also, the EC (1.5-fold increase) in series [1] fell in the range of 0.1 to 0.3 µM. For the same compound, in series [2], the “EC1.5x for Smn protein expression” value is “*** (an EC1.5× between >0.3 μM and ≤1 μM is indicated by three stars (***))”; the “maximum fold (Fold) increase” value is listed as “***** (a fold increase >1.65 is indicated by five stars (*****))”.
Take `Cc1cn2nc(-c3cc(=O)n4cc(C5CCN(C6CCC6)CC5)cc(C)c4n3)cc2c(C)n1` [Compound 704, 7-(1-cyclobutylpiperidin-4-yl)-2-(4,6-dimethylpyrazolo[1,5-a]pyrazin-2-yl)-9-methyl-4H-pyrido[1,2-a]pyrimidin-4-one]: the melting point lay in the range of 228 to 237 °C. Moreover, the EC (1.5-fold increase) in series [1] lay within 0.1 to 0.3 µM. Moreover, in series [2], the “EC1.5x for Smn protein expression” value is “**** (an EC1.5x≤0.3 μM is indicated by four stars (****))”; the “maximum fold (Fold) increase” value was “**** (a fold increase between >1.5 and ≤1.65 is indicated by four stars (****))”.
In turn, `CNC1CC=C(c2ccc3nc(-c4ccc(OC)c(OC)c4)cc(=O)n3c2)CC1` (stereo not drawn) [Compound 366, 2-(3,4-dimethoxyphenyl)-7-[4-(methylamino)cyclohex-1-en-1-yl]-4H-pyrido[1,2-a]pyrimidin-4-one] gave a melting point of 232 to 235 °C. In series [1], the EC (1.5-fold increase) was less than 0.1 µM. Also, in series [2], the “EC1.5x for Smn protein expression” value is given as “**** (an EC1.5x≤0.3 μM is indicated by four stars (****))”; the “maximum fold (Fold) increase” value was “**** (a fold increase between >1.5 and ≤1.65 is indicated by four stars (****))”.
The compound `Cc1cn2nc(-c3cc(=O)n4cc(C5CCN(CCCF)CC5)ccc4n3)cc2c(C)n1` [Compound 663, 2-(4,6-dimethylpyrazolo[1,5-a]pyrazin-2-yl)-7-[1-(3-fluoropropyl)piperidin-4-yl]-4H-pyrido[1,2-a]pyrimidin-4-one] showed a melting point of 186 to 188 °C. For the same compound, the EC (1.5-fold increase) in series [1] is less than 0.1 µM. Further, in series [2], the “EC1.5x for Smn protein expression” value is given as “**** (an EC1.5x≤0.3 μM is indicated by four stars (****))” and the “maximum fold (Fold) increase” value is “***** (a fold increase >1.65 is indicated by five stars (*****))”.
As for `CCc1nc(C)cn2nc(-c3cc(=O)n4cc(N5CCCN(C)CC5)ccc4n3)cc12` [Compound 636, 2-(4-ethyl-6-methylpyrazolo[1,5-a]pyrazin-2-yl)-7-(4-methyl-1,4-diazepan-1-yl)-4H-pyrido[1,2-a]pyrimidin-4-one], the melting point lay in the range of 175 to 180 °C. The EC (1.5-fold increase) in series [1] was less than 0.1 µM. In series [2], the “EC1.5x for Smn protein expression” value is on record as “**** (an EC1.5x≤0.3 μM is indicated by four stars (****))” and the “maximum fold (Fold) increase” value is on record as “***** (a fold increase >1.65 is indicated by five stars (*****))”.
In the case of `COc1ccc(-c2cc(=O)n3cc(N4CCN[C@@H](C)C4)ccc3n2)cc1Cl` [Compound 111, 2-(3-chloro-4-methoxyphenyl)-7-[(3S)-3-methylpiperazin-1-yl]-4H-pyrido[1,2-a]pyrimidin-4-one], the melting point lay in the range of 187 to 189 °C. Also, the EC (1.5-fold increase) in series [1] was in the range of 0.1 to 0.3 µM. Besides, the “maximum fold (Fold) increase” value in series [2] is “*** (a fold increase between >1.35 and ≤1.5 is indicated by three stars (***))”.
As to `Cc1cn2nc(-c3cc(=O)n4cc(N5CCC6C(CCN6C)C5)ccc4n3)cc2c(C)n1` (stereo not drawn) [Compound 602, 2-(4,6-dimethylpyrazolo[1,5-a]pyrazin-2-yl)-7-(1-methyloctahydro-5H-pyrrolo[3,2-c]pyridin-5-yl)-4H-pyrido[1,2-a]pyrimidin-4-one], the melting point lay within 210 to 212 °C. For the same compound, the EC (1.5-fold increase) in series [1] was less than 0.1 µM. In addition, in series [2], the “EC1.5x for Smn protein expression” value is listed as “**** (an EC1.5x≤0.3 μM is indicated by four stars (****))”; the “maximum fold (Fold) increase” value was “**** (a fold increase between >1.5 and ≤1.65 is indicated by four stars (****))”.
As to `Cc1cn2cc(-c3cc(=O)n4cc(C5CCN(C)CC5)ccc4n3)cc(Cl)c2n1` [Compound 517, 2-(8-chloro-2-methylimidazo[1,2-a]pyridin-6-yl)-7-(1-methylpiperidin-4-yl)-4H-pyrido[1,2-a]pyrimidin-4-one], the melting point is 292 to 296 °C. Moreover, the EC (1.5-fold increase) in series [1] was less than 0.1 µM. Besides, in series [2], the “EC1.5x for Smn protein expression” value is given as “**** (an EC1.5x≤0.3 μM is indicated by four stars (****))” and the “maximum fold (Fold) increase” value is “***** (a fold increase >1.65 is indicated by five stars (*****))”.
For `Cc1cn2nc(-c3cc(=O)n4cc(C5=CCN(C)CC5)ccc4n3)cc2cn1` [Compound 484, 2-(6-methylpyrazolo[1,5-a]pyrazin-2-yl)-7-(1-methyl-1,2,3,6-tetrahydropyridin-4-yl)-4H-pyrido[1,2-a]pyrimidin-4-one], in that order: 126 to 128 °C, less than 0.1 µM, “**** (an EC1.5x≤0.3 μM is indicated by four stars (****))” and “***** (a fold increase >1.65 is indicated by five stars (*****))”.
In the case of `Cc1cn2cc(-c3cc(=O)n4cc(N5CCN[C@H](C)C5)ccc4n3)cc(C3CC3)c2n1` [Compound 715, 2-(8-cyclopropyl-2-methylimidazo[1,2-a]pyridin-6-yl)-7-[(3R)-3-methylpiperazin-1-yl]-4H-pyrido[1,2-a]pyrimidin-4-one], the melting point was in the range of 246 to 250 °C. Further, in series [1], the EC (1.5-fold increase) was less than 0.1 µM. In series [2], the “EC1.5x for Smn protein expression” value was “**** (an EC1.5x≤0.3 μM is indicated by four stars (****))” and the “maximum fold (Fold) increase” value is “***** (a fold increase >1.65 is indicated by five stars (*****))”.
Turning to `Cc1nc2ccc(-c3cc(=O)n4cc(N5CCN[C@@H](C)C5)ccc4c3)cc2o1` [Cpd 322, 2-(2-methyl-1,3-benzoxazol-6-yl)-7-[(3S)-3-methylpiperazin-1-yl]-4H-quinolizin-4-one], the melting point was 115 to 117 °C. Besides, in series [1], the EC (1.5-fold increase) was less than 0.1 µM. In addition, in series [2], the “EC1.5x for Smn protein expression” value is “*** (an EC1.5× between >0.3 μM and ≤1 μM is indicated by three stars (***))”; the “maximum fold (Fold) increase” value was “**** (a fold increase between >1.5 and ≤1.65 is indicated by four stars (****))”.
`Cc1cc(C2CCNCC2)cn2c(=O)cc(-c3ccc4c(cnn4C)c3)nc12` [Compound 772, 9-methyl-2-(1-methyl-1H-indazol-5-yl)-7-(piperidin-4-yl)-4H-pyrido[1,2-a]pyrimidin-4-one] registered a melting point of 212 to 217 °C. Further, in series [1], the EC (1.5-fold increase) was less than 0.1 µM. Also, in series [2], the “EC1.5x for Smn protein expression” value is “**** (an EC1.5x≤0.3 μM is indicated by four stars (****))” and the “maximum fold (Fold) increase” value was “***** (a fold increase >1.65 is indicated by five stars (*****))”.
The compound `Cc1cn2nc(-c3cc(=O)n4cc(C5=C[C@H](C)N[C@@H](C)C5)ccc4n3)cc2c(C)n1` [Cpd 798, 2-(4,6-dimethylpyrazolo[1,5-a]pyrazin-2-yl)-7-[(2S,6S)-2,6-dimethyl-1,2,3,6-tetrahydropyridin-4-yl]-4H-pyrido[1,2-a]pyrimidin-4-one] showed a melting point of 228 to 231 °C. In addition, in series [1], the EC (1.5-fold increase) was less than 0.1 µM. Besides, in series [2], the “EC1.5x for Smn protein expression” value is listed as “**** (an EC1.5x≤0.3 μM is indicated by four stars (****))” and the “maximum fold (Fold) increase” value is given as “***** (a fold increase >1.65 is indicated by five stars (*****))”.

The term melting point denotes the temperature, or range, at which the solid turns liquid.
